Assays:
[1] = tested on: Beta-TC6; assay: Inhibition of glucose-stimulated insulin release in beta-TC6 cells at 10 uM; assay type: functional, Mus musculus
[2] = tested on: Beta-TC3; assay: Repolarization of beta-TC3 cells; assay type: functional, cell-based, Mus musculus
[3] = tested on: Beta-TC6; assay: Inhibition of glucose-stimulated insulin release in betaTC6 cells; assay type: functional, cell-based; conditions: Mus musculus
[4] = species on record: Rattus norvegicus; assay: Relaxation of precontracted Wistar rat aorta rings; assay type: functional, organism-based; conditions: for EC50: Rattus norvegicus, Aorta
[5] = tested on: Rattus norvegicus; assay: Reduction in plasma insulin level in anaesthetized Sprague-Dawley rat at 3 mg/kg, iv; assay type: functional
[6] = Oral bioavailability in Sprague-Dawley rat at 2.48 mg/kg, po; assay type: ADME, organism-based; conditions: in vivo
[7] = biological target: T1, Sulfonylurea receptor 1, Kir6.2 (Homo sapiens, UniProt Q09428+Q14654); assay: Repolarization of HEK293 cells expressing Kir6.2/SUR1 KATP channels; assay type: functional, cell-based
T1 sequence (Q14654 whole entry): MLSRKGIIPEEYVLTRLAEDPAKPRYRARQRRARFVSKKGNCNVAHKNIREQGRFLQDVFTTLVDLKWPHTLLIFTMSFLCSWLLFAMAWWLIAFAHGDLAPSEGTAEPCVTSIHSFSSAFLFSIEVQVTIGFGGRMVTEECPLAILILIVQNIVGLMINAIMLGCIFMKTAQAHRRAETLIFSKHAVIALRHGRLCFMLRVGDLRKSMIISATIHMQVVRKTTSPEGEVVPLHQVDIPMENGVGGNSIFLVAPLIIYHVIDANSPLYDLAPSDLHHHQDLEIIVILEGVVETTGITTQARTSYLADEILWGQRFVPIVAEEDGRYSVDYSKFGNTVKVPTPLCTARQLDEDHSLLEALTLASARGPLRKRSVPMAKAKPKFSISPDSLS
T1 sequence (Q09428 whole entry): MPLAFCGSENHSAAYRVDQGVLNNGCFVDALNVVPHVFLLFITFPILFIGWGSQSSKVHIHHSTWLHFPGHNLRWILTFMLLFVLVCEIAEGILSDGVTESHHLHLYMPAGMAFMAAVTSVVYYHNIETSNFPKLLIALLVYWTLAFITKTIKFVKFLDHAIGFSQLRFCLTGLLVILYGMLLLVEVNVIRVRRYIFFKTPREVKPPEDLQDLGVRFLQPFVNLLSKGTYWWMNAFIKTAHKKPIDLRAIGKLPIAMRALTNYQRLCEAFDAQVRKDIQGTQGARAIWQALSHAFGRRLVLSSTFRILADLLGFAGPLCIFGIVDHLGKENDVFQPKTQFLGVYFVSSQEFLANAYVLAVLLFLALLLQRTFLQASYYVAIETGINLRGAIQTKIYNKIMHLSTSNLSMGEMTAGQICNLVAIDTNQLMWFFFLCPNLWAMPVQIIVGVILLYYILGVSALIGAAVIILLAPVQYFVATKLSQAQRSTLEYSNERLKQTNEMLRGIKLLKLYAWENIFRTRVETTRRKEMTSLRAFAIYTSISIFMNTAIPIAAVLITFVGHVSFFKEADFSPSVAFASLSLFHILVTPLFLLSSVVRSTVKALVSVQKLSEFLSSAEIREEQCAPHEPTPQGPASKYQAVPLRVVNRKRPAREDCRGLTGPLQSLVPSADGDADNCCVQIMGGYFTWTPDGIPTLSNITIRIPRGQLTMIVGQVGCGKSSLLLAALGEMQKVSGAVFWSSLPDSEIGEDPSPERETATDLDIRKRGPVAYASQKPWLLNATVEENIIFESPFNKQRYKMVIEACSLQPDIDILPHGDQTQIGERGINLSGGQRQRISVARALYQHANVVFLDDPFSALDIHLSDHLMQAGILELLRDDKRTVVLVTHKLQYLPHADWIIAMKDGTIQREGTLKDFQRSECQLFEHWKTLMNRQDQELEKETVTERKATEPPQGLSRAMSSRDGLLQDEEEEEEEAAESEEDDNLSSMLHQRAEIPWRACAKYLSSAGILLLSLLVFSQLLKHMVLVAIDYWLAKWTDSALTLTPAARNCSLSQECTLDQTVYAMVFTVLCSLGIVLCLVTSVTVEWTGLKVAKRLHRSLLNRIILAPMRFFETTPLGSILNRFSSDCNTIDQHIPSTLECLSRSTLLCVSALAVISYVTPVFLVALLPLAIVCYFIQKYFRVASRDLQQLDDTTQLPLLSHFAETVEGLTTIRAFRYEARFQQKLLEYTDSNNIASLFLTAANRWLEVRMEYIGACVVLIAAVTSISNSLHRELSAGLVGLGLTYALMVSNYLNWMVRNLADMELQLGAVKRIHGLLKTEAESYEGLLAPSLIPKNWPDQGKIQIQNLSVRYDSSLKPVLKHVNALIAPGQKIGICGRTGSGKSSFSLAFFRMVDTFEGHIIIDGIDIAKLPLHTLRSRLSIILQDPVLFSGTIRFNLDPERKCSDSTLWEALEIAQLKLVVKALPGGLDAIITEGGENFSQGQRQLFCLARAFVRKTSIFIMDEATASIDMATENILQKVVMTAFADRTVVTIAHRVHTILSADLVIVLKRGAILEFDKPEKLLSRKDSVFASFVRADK

[8] = Cmax in Sprague-Dawley rat at 2.48 mg/kg, po; assay type: ADME, organism-based; design: dose 2.48 mg/kg, route oral; conditions: in vivo
[9] = Clearance in Sprague-Dawley rat at 2.48 mg/kg, po or 1.08 mg/kg, iv; assay type: ADME, organism-based; conditions: in vivo
[10] = Plasma concentration in Sprague-Dawley rat after 30 mins; assay type: ADME, organism-based
[11] = species on record: Rattus norvegicus; assay: Inhibition of glucose-stimulated insulin release in Wistar rat islets; assay type: functional, organism-based
[12] = tested on: Rattus norvegicus; assay: Reduction in plasma insulin level in po dosed Zucker obese rat after 2 hrs; assay type: functional; conditions: read-out: ID50 (the source's name)
[13] = Half life in Sprague-Dawley rat at 2.48 mg/kg, po; assay type: ADME, organism-based; design: dose 2.48 mg/kg, route oral; conditions: in vivo
[14] = Tmax in Sprague-Dawley rat at 2.48 mg/kg, po or 1.08 mg/kg, iv; assay type: ADME, organism-based; conditions: in vivo
[15] = Oral bioavailability in Sprague-Dawley rat at 2.3 mg/kg, po; assay type: ADME, organism-based; conditions: in vivo
[16] = Tmax in Sprague-Dawley rat at 2.3 mg/kg, po or 1.24 mg/kg, iv; assay type: ADME, organism-based; conditions: in vivo
[17] = biological target: T1, Sulfonylurea receptor 1, Kir6.2; assay: Displacement of [3H]glibenclamide from human Kir6.2/SUR1 expressed in HEK293 cells in presence of 2 mM ATP; assay type: cell-based
[18] = biological target: T1, Sulfonylurea receptor 1, Kir6.2; assay: Displacement of [3H]glibenclamide from human Kir6.2/SUR1 expressed in HEK293 cells; assay type: cell-based
[19] = Cmax in Sprague-Dawley rat at 2.3 mg/kg, po; assay type: ADME, organism-based; design: dose 2.3 mg/kg, route oral; conditions: in vivo
[20] = Clearance in Sprague-Dawley rat at 2.3 mg/kg, po or 1.24 mg/kg, iv; assay type: ADME, organism-based; conditions: in vivo
[21] = Half life in Sprague-Dawley rat at 2.3 mg/kg, po; assay type: ADME, organism-based; design: dose 2.3 mg/kg, route oral; conditions: in vivo
[22] = Tmax in Sprague-Dawley rat at 2.19 mg/kg, po or 1.22 mg/kg, iv; assay type: ADME, organism-based; conditions: in vivo
[23] = Cmax in Sprague-Dawley rat at 2.19 mg/kg, po; assay type: ADME, organism-based; design: dose 2.19 mg/kg, route oral; conditions: in vivo
[24] = Oral bioavailability in Sprague-Dawley rat at 2.19 mg/kg, po; assay type: ADME, organism-based; conditions: in vivo
[25] = Half life in Sprague-Dawley rat at 2.19 mg/kg, po; assay type: ADME, organism-based; design: dose 2.19 mg/kg, route oral; conditions: in vivo
[26] = Clearance in Sprague-Dawley rat at 2.19 mg/kg, po or 1.22 mg/kg, iv; assay type: ADME, organism-based; conditions: in vivo
[27] = tested on: Rattus norvegicus; assay: Oral bioavailability in Sprague-Dawley rat at 2 mg/kg, po; assay type: ADME, organism-based; conditions: in vivo
[28] = Half life in Sprague-Dawley rat at 2 mg/kg, po; assay type: ADME, organism-based; design: dose 2 mg/kg, route oral; conditions: in vivo
[29] = Tmax in Sprague-Dawley rat at 2 mg/kg, po or 0.5 mg/kg, iv; assay type: ADME, organism-based; conditions: in vivo
[30] = Clearance in Sprague-Dawley rat at 2 mg/kg, po or 0.5 mg/kg, iv; assay type: ADME, organism-based; conditions: in vivo
[31] = Cmax in Sprague-Dawley rat at 2 mg/kg, po; assay type: ADME, organism-based; design: dose 2 mg/kg, route oral; conditions: in vivo
[32] = Cmax in Sprague-Dawley rat at 1.89 mg/kg, po; assay type: ADME, organism-based; design: dose 1.89 mg/kg, route oral; conditions: in vivo
[33] = Half life in Sprague-Dawley rat at 1.89 mg/kg, po; assay type: ADME, organism-based; design: dose 1.89 mg/kg, route oral; conditions: in vivo
[34] = Tmax in Sprague-Dawley rat at 1.89 mg/kg, po or 0.89 mg/kg, iv; assay type: ADME, organism-based; conditions: in vivo
[35] = Oral bioavailability in Sprague-Dawley rat at 1.89 mg/kg, po; assay type: ADME, organism-based; conditions: in vivo
[36] = Clearance in Sprague-Dawley rat at 1.89 mg/kg, po or 0.89 mg/kg, iv; assay type: ADME, organism-based; conditions: in vivo
[37] = Mus musculus, Beta-TC3, read-out: EC50

CC1(NC2=NS(=O)(=O)c3sc(Cl)cc3N2)CCC1
Efficacy [1]: 92% | EC50 [2, 37]: 0.02 µM | EC50 [3]: 0.02 µM

C[C@@H](NC1=NS(=O)(=O)c2sc(Cl)cc2N1)c1ccccc1
Efficacy [1]: 68% | EC50 [2, 37]: 0.5 µM | EC50 [4]: 24 µM | EC50 [3]: 0.99 µM

C[C@H](NC1=NS(=O)(=O)c2sc(Cl)cc2N1)c1ccc(Br)cc1
Efficacy [1]: 69% | EC50 [2, 37]: 2 µM | EC50 [4]: 95 µM | EC50 [3]: 2.07 µM

CC1(NC2=NS(=O)(=O)c3scc(Br)c3N2)CC1
Efficacy [1]: 5% | EC50 ([2]; beta-tc3): Not Active | EC50 [3]: 6.7 µM

CC1(NC2=NS(=O)(=O)c3scc(Cl)c3N2)CC1
Efficacy [1]: 2% | EC50 ([2]; beta-tc3): Not Active | EC50 [3]: 0.28 µM

CC(C)NC1=NS(=O)(=O)c2cc(Cl)sc2N1
Efficacy [1]: 16% | EC50 [2, 37]: 5 µM | EC50 [4]: > 300 µM | EC50 [3]: 19.8 µM

CC1(NC2=NS(=O)(=O)c3sc(Br)cc3N2)CC1
inhibition in vivo at 3 mg/kg [5]: 97% | bioavailability [6]: 96% | Efficacy [1]: 81% | EC50 [7]: 0.16 µM | Cmax [8]: 0.885 µg/mL | clearance [9]: 0.9 L/h/kg | concentration at 0.5 h [10]: 0.34 µg/mL | EC50 [2, 37]: 0.14 µM | EC50 [11]: 0.02 µM | ED50 [12]: < 3 mg/kg | EC50 [4]: 133 µM | EC50 [3]: 0.31 µM | half-life [13]: 2.6 h | Tmax [14]: 1.5 h

COc1ccc(C2(NC3=NS(=O)(=O)c4sc(Cl)cc4N3)CC2)cc1
Efficacy [1]: 69% | EC50 [2, 37]: 0.5 µM | EC50 [4]: 2.89 µM | EC50 [3]: 3.57 µM

C[C@H](NC1=NS(=O)(=O)c2sc(Cl)cc2N1)c1ccccc1
Efficacy [1]: 28% | Emax ([2]; Mus musculus, Beta-TC3): < 60% | EC50 [2, 37]: 3.5 µM | EC50 [4]: 34.9 µM | EC50 [3]: 13 µM

CC(C)(NC1=NS(=O)(=O)c2sc(Cl)cc2N1)c1ccccc1
inhibition in vivo at 3 mg/kg [5]: 86% | bioavailability [15]: 82% | Tmax [16]: 0.25 h | Efficacy [1]: 76% | EC50 [7]: 0.18 µM | IC50 [17]: 0.081 µM | EC50 [2, 37]: 0.13 µM | IC50 [18]: 360 µM | EC50 [11]: 0.04 µM | ED50 [12]: 4 mg/kg | EC50 [4]: 103 µM | EC50 [3]: 0.24 µM | Cmax [19]: 2.59 µg/mL | clearance [20]: 0.438 L/h/kg | half-life [21]: 0.867 h

CN1C(NC2(C)CC2)=NS(=O)(=O)c2sc(Cl)cc21
Efficacy [1]: 23% | EC50 ([2]; beta-tc3): Not Active | EC50 [3]: 0.74 µM

O=S1(=O)N=C(NC2(C(F)(F)F)CC2)Nc2cc(Cl)sc21
inhibition in vivo at 3 mg/kg [5]: 90% | Tmax [22]: 0.5 h | Cmax [23]: 0.533 µg/mL | bioavailability [24]: 70% | Efficacy [1]: 76% | half-life [25]: 5.5 h | EC50 [7]: 0.53 µM | EC50 [2, 37]: 0.4 µM | EC50 [11]: 0.16 µM | ED50 [12]: 8 mg/kg | EC50 [4]: 40 µM | EC50 [3]: 1.4 µM | clearance [26]: 0.3 L/h/kg

O=S1(=O)NC(NCc2ccccc2)=Nc2cc(Cl)sc21
Efficacy [1]: 30% | Emax ([2]; Mus musculus, Beta-TC3): < 60% | EC50 [2, 37]: 3.6 µM | EC50 [4]: 133 µM | EC50 [3]: 6.11 µM

O=S1(=O)NC(NC2(c3ccccc3)CC2)=Nc2cc(Cl)sc21
Efficacy [1]: 66% | EC50 [7]: 0.81 µM | EC50 [2, 37]: 0.48 µM | EC50 [11]: 0.11 µM | EC50 [4]: 183 µM | EC50 [3]: 2.67 µM

O=S1(=O)N=C(NC2(c3cccc(Cl)c3)CCC2)Nc2cc(Cl)sc21
Efficacy [1]: 40% | EC50 [2, 37]: 0.16 µM | EC50 [4]: 13.9 µM | EC50 [3]: 13.4 µM

CC1(NC2=NS(=O)(=O)c3sccc3N2)CC1
Efficacy [1]: 19% | EC50 [2, 37]: > 30 µM | Efficacy [4]: 18% | EC50 [4]: 6.87 µM | EC50 [3]: 0.19 µM

CC1(NC2=NS(=O)(=O)c3cc(Cl)sc3N2)CC1
EC50 ([2]; beta-tc3): Not Active

O=S1(=O)N=C(NCC(F)(F)F)Nc2cc(Cl)sc21
Efficacy [1]: 36% | EC50 [2, 37]: 3.1 µM | EC50 [4]: 173 µM | EC50 [3]: 0.15 µM

CC1=Nc2ccc(Cl)cc2S(=O)(=O)N1 [DIAZOXIDE]
inhibition in vivo at 3 mg/kg [5]: 53% | F [27]: 154% | Efficacy [1]: 25% | EC50 [2, 37]: 13.7 µM | half-life [28]: 1.32 h | Tmax [29]: 1 h | EC50 [11]: 20.3 µM | clearance [30]: 0.48 L/h/kg | ED50 [12]: > 30 mg/kg | EC50 [3]: 23 µM | Cmax [31]: 1.45 µg/mL

CC1(NC2=NS(=O)(=O)c3sc(Cl)cc3N2)CC1 [TIFENAZOXIDE]
inhibition in vivo at 3 mg/kg [5]: 85% | Cmax [32]: 1.23 µg/mL | half-life [33]: 4.17 h | Efficacy [1]: 73% | Tmax [34]: 0.5 h | ED50 [12]: 1.5 mg/kg | EC50 [3]: 0.25 µM | bioavailability [35]: 103% | clearance [36]: 0.421 L/h/kg
